Data on two compounds can be found in patent EP4759810A1, “PROTAC TARGETING BCL-XL PROTEIN AND USE THEREOF” (BEIJING SUNCELL BIO-MEDICAL CO., LTD., priority 2023, dated 2025).

Series [1] is described as follows: Metabolic stability assay in liver microsomes (mouse). It counts as in vitro ADME. The procedure: (§1) The metabolic reaction of compounds in liver microsome was performed in a system with a total volume of 400 µL, and the following steps below were sequentially performed for the reaction and detection: 1) 200 µL of phosphate buffer (200 mM), 106 µL of sterile ultrapure water, and 40 µL of magnesium chloride solution (50 mM) were added to each detection tube to prepare a reaction working solution. 2) Two reaction systems with or without adding NADPH were prepared for each compound to be tested. For the reaction system with adding NADPH: 10 µL of liver microsomes (20 mg/mL) and 40 µL of NADPH (10 mM) were added to the above working solution; for the reaction system without adding NADPH: 10 µL of liver microsomes (20 mg/mL) and 40 µL of sterile ultrapure water were added to the above working solution. The final concentration of liver microsomes in both reaction systems was 0.5 mg/mL. 3) 4 µL of the compound to be tested ([…]) was added to each reaction tube, resulting in a final concentration of 1 µM for the compound in the reaction system. The detection tubes were placed at 37°C for reaction. 4) 50 µL samples were taken from each detection tube at 0, 15, 30, 45, and 60 minutes after adding the compound. The reaction was terminated by adding cold acetonitrile containing IS (100 nM alprazolam, 200 nM labetalol, 200 nM caffeine, and 2 µM ketoprofen) in a 4× volume. The samples were centrifuged at 3220 g for 40 minutes, 100 µL of the supernatant was mixed with 100 µL of ultrapure water, and a sample was taken for LC-MS/MS analysis.
(§2) Calculation of in vitro liver microsomal metabolic half-life and in vitro metabolic intrinsic clearance rate: The LC-MS detection results were analyzed to obtain the percentage of the remaining amount of the tested compound relative to the initial amount at each time point. The natural logarithm of the remaining percentage was linearly fitted against the incubation time.
(Liver microsomes are vesicles of endoplasmic reticulum, rich in cytochrome P450 enzymes.)

Series [2] in a line: Metabolic stability assay in liver microsomes (human). The format is in vitro ADME. How it is done:
as §1, §2

The subject of a further series is MRC5 cells. Put plainly: Senescent cell killing activity test, MRC5 cell model (CCK-8). It counts as cell-based, human. How it is done:
To avoid replication of the induced senescent cells, low-passage proliferating HEF cells (<10 passages), MRC5 cells (<6 passages), and BJ cells (<10 passages) were used as normal controls. For chemical drug induced senescence, HEF cells were treated with 10 µM etoposide (Selleck, S1225) for 36-48 hours, MRC5 cells were treated with 5 µM bleomycin (Selleck, S1225) for 72 hours, and BJ cells were treated with 10 µg/mL bleomycin for 72 hours. Three days after the treatment, the cells were subcultured in fresh culture medium at a 1:3 ratio for 72 hours before further analysis and use.
Non-senescent and induced-senescent HEF cells, non-senescent and induced-senescent MRC5 cells, and non-senescent and induced-senescent BJ cells were respectively digested with trypsin, and centrifuged at 1000 rpm for 5 minutes. Then, the supernatant was removed, and the cells were resuspended in fresh DMEM culture medium containing 10% fetal bovine serum for counting. The cell density was adjusted so that the non-senescent cell density was 4000 cells/100 µL and the senescent cell density was 7000 cells/100 µL. 100 µL of the cell suspension was added to each well of a 96-well transparent cell culture plate. It was noted that the edge wells of the 96-well plate were not used as testing wells, and 300 µL of PBS alone was added to these wells to reduce evaporation of the culture medium. The 96-well plates with the well-plated cells were placed back in a 37°C incubator for overnight culture until the cells adhered. On the next day, the small molecule compounds to be tested were prepared and added after the cells had adhered.
A series of small molecule concentration gradients (0.01, 0.03, 0.1, 0.3, 1, 3, 10, and 25 µM) were pre-set, and a series of 2× drug dilutions for the above concentrations were prepared in DMEM culture medium containing 10% fetal bovine serum. 100 µL of the above DMEM culture medium containing the gradient concentrations of the drug was added to each well of the 96-well plate that had been well-plated with cells, so that the final drug concentration in each well was the pre-set series of concentrations. Three replicate wells were used for each test drug concentration. The 96-well plates were placed back in a 37°C incubator, and cell viability was measured after three days.
Three days after adding the drug, the plates were taken out, and the supernatant was discarded. 100 µL of pre-prepared CCK-8 working solution was added to each well. The CCK-8 working solution was obtained through diluting a CCK-8 stock solution (C0041, Beyotime) with a serum-free DMEM culture medium by 10-fold volumn. The 96-well plates containing the CCK-8 working solution were placed back in the 37°C incubator and incubated for 0.5-2 hours. The plates were then taken out, and the absorbance value (OD value) of each well was measured at a wavelength of 450 nm. The cell viability in each experimental group was calculated according to the following formula: Relative cell viability (%) = (Blank control group - Experimental group) / Blank control group × 100%.

[3] abbreviates: mouse liver microsomes 0.5 mg/mL, 1 µM compound, 37°C.
Where [4] appears, read: human liver microsomes 0.5 mg/mL, 1 µM compound, 37°C.

By half-life is commonly meant the time needed for the level to fall by half in the phase considered. A lower half-life goes with fast loss. For `O=C1CCC(N2C(=O)c3cccc(NCCN4CCC(CN5CCN(CC#Cc6ccc(OCCCc7ccc(N8CCc9cccc(C(=O)Nc%10nc%11ccccc%11s%10)c9C8)nc7C(=O)O)c(F)c6)CC5)CC4)c3C2=O)C(=O)N1` (centres unmarked) [APQ2], the figures for the Clint in series [1] (setting [3]) and in series [2] (setting [4]) were 4.30 µL/min/mg protein and 2.77 µL/min/mg protein, respectively. The figures for the half-life at 1 µM in series [1] (setting [3]) and in series [2] (setting [4]) were 5.37 h and 8.34 h, respectively. The microsomal CLint at 1 µM worked out at 4.3 µL/min/mg in series [1] (mouse liver microsomes, read-out: clearance rate (metabolic clearance rate)) and 2.77 µL/min/mg in series [2] (human liver microsomes, read-out: clearance rate (metabolic clearance rate)).

Consider `O=C1CCN(c2ccc(N3CCC(CN4CCN(CC#Cc5ccc(OCCCc6ccc(N7CCc8cccc(C(=O)Nc9nc%10ccccc%10s9)c8C7)nc6C(=O)O)c(F)c5)CC4)CC3)cc2)C(=O)N1` [APQ10], for which the “activity for killing senescent cells at lower concentrations compared to A-1331852” value in the series with MRC5 cells (0.01 µM and 0.03 µM) is listed as “superior to that of A-1331852”. Also, the “selectivity for senescent cells” value in the series on MRC5 cells (Figures 3G-3L) is listed as “better selectivity for senescent cells”.
